Paper PMC8125507, “Molecular Mechanism of Thymidylate Synthase Inhibition by N^4-Hydroxy-dCMP in View of Spectrophotometric and Crystallographic Studies” (International Journal of Molecular Sciences, 2021)

Experiments:
Format in all cases: binding
mTS = target: T1, mTS (Mus musculus, UniProt P07607); assay: X-ray crystal structure, co-crystal soaked with meTHF, […] Å; conditions: pH 6.7; folate derivative also bound; active site of both subunits, non-covalent
T1 construct: gene Tyms; recombinant, non-phosphorylated fraction for crystals; dimer; catalytic Cys189; residues 21-307 modelled

CeTS = target: T2, CeTS (Caenorhabditis elegans, UniProt Q9Y052); assay: X-ray crystal structure, soaked crystal, […] Å; conditions: apoenzyme crystal soaked with 36 mM ligand ca. 80 min, pH 5.6; no folate; active site of both subunits, non-covalent
T2 construct: recombinant, non-phosphorylated fraction; dimer; catalytic Cys197; residues 24-312 modelled

TspTS = target: T3, TspTS (Trichinella spiralis, UniProt Q9NDD3); assay: X-ray crystal structure, co-crystal, […] Å; conditions: co-crystallized with meTHF, pH 7.1; covalent to Cys189 Sγ via pyrimidine C(6); bound form reduced at C(5); no folate seen
T3 construct: gene ts; recombinant, non-phosphorylated fraction; dimer; catalytic Cys189; residues 18-307 modelled in part
T3 sequence (Q9NDD3 entry or part of it): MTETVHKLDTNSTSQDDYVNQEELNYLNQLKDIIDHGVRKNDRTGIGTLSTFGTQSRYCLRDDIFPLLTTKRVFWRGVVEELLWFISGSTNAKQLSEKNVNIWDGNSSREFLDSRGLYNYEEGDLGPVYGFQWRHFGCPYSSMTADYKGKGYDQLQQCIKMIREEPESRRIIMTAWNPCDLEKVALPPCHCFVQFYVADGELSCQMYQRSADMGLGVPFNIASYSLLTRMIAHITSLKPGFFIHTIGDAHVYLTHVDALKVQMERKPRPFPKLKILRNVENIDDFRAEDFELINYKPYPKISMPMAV

T2 sequence (Q9Y052 entry or part of it): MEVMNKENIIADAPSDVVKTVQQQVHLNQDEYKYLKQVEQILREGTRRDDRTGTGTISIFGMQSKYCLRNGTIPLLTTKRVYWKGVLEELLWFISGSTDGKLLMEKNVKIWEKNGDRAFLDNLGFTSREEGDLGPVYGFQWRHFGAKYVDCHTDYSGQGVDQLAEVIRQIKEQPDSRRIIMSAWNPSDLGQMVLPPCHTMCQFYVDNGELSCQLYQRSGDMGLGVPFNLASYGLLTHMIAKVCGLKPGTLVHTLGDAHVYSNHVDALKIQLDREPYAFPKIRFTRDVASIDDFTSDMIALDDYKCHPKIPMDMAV
T1 sequence (P07607 whole entry, the tested form may be a part): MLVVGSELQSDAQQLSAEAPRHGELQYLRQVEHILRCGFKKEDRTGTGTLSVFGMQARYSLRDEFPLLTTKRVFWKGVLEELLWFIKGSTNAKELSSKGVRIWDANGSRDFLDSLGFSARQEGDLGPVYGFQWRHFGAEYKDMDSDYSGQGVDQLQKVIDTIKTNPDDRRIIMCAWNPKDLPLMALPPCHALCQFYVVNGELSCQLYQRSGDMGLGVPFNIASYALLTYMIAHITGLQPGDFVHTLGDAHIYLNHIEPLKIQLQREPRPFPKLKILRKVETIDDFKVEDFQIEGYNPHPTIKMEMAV

In the case of `O=c1nc(NO)ccn1[C@H]1C[C@H](O)[C@@H](COP(=O)(O)O)O1` [N^4-OH-dCMP, N^4-hydroxy-2′-deoxycytidine 5′-monophosphate], the “X-ray crystal structure, co-crystal soaked with meTHF, 2.13 Å” value (mTS) is reported as “N^4-OH-dCMP molecules are modeled with full occupancy”, the “X-ray crystal structure, soaked crystal, 2.8 Å” value (CeTS) is reported as “with N^4-OH-dCMP molecules in both active sites refined with full occupancy” and the “X-ray crystal structure, co-crystal, 1.18 Å” value (TspTS) is reported as “a clear electron density was present, identified as the N^4-OH-dCMP molecule”.
